We go through twelve compounds from patent US8828908B2, “Herbicidally active bicyclic 1,3-dione compounds” (Syngenta Limited, priority 2007, dated 2014).

Common to all, as to type: in vivo
For test [1], the system named is Echinochloa crus-galli (ECHCG). Put plainly: Example A pre-emergence herbicidal glasshouse test. To be noted: 312 h, Rate 250 g/ha, evaluated after 13 days, 100=total damage to plant, 0=no damage to plant. As to the method:
(§1) Seeds of a variety of test species were sown in standard soil in pots. After cultivation for one day (pre-emergence) or after 8 days cultivation (post-emergence) under controlled conditions in a glasshouse (at 24/16° C., day/night; 14 hours light; 65% humidity), the plants were sprayed with an aqueous spray solution derived from the formulation of the technical active ingredient in acetone/water (50:50) solution containing 0.5% Tween 20 (polyoxyethelyene sorbitan monolaurate, CAS RN 9005-64-5). The test plants were then grown in a glasshouse under controlled conditions in a glasshouse (at 24/16° C., day/night; 14 hours light; 65% humidity) and watered twice daily. After 13 days for pre and post-emergence, the test was evaluated (100=total damage to plant; 0=no damage to plant).
(§2) Alopecurus myosuroides (ALOMY), Avena fatua (AVEFA), Setaria faberi (SETFA), Echinochloa crus-galli (ECHCG), Solanum nigrum (SOLNI) and Amaranthus retroflexus (AMARE)

The test system of test [2] is Setaria faberi (SETFA). Put plainly: Example A pre-emergence herbicidal glasshouse test. Particulars: 312 h, Rate 250 g/ha, evaluated after 13 days, 100=total damage to plant, 0=no damage to plant. As to the method: as §1, §2
The test system of test [3] is Avena fatua (AVEFA). Briefly: Example A pre-emergence herbicidal glasshouse test. To be noted: 312 h, Rate 250 g/ha, evaluated after 13 days, 100=total damage to plant, 0=no damage to plant. As for the experimental part:
as §1, §2

The subject of test [4] is Alopecurus myosuroides (ALOMY). Briefly: Example A pre-emergence herbicidal glasshouse test. To be noted: 312 h, Rate 250 g/ha, evaluated after 13 days, 100=total damage to plant, 0=no damage to plant. As for the experimental part: as §1, §2
Test [5] concerns Amaranthus retroflexus (AMARE). Put plainly: Example A pre-emergence herbicidal glasshouse test. Particulars: 312 h, Rate 250 g/ha, evaluated after 13 days, 100=total damage to plant, 0=no damage to plant. As to the method:
as §1, §2

For test [6], the system named is Echinochloa crus-galli (ECHCG). Put plainly: Example A post-emergence herbicidal glasshouse test. To be noted: 312 h, evaluated after 13 days, 100=total damage to plant, 0=no damage. As for the experimental part:
as §1, §2

Test [7] relates to Setaria faberi (SETFA). The test is described as above. Particulars: 312 h, evaluated after 13 days, 100=total damage to plant, 0=no damage. As to the method: as §1, §2
The test system of test [8] is Avena fatua (AVEFA). Described as above. Particulars: 312 h, evaluated after 13 days, 100=total damage to plant, 0=no damage. As to the method:
as §1, §2

In test [9] the test system is Alopecurus myosuroides (ALOMY). Described as above. To be noted: 312 h, evaluated after 13 days, 100=total damage to plant, 0=no damage. As for the experimental part:
as §1, §2

Test [10] deals with Amaranthus retroflexus (AMARE). The description is as above. To be noted: 312 h, evaluated after 13 days, 100=total damage to plant, 0=no damage. As for the experimental part:
as §1, §2

As to `CCc1ccc(-c2ccc(Cl)cc2C(F)(F)F)cc1C1=C(O)[C@H]2CC[C@H](C2)C1=O` (single isomer, unassigned) [Compound T45], the pest or weed control (as a rule, how far the test organism was held down) at 250 g/ha in [1] was found to be 0%; in test [2], 0%; in test [3] it was 0%; in [4], 0%; in test [5] it was 0%; in [6], 60%. Also, the pest or weed control at 250 g/ha in [7] was 70%; in [8], 0%; in test [9] it was 30%; in [10], 0%.
In the case of `CCOc1ccc(-c2ccc(Cl)cc2)cc1C1=C(O)[C@H]2CC[C@H](C2)C1=O` [Compound T52], the pest or weed control at 250 g/ha in test [1] came to 0%; in test [2] it was 0%; in test [3], 0%; in test [4], 0%; in [5], 0%; in [6], 80%. In addition, the pest or weed control at 250 g/ha was determined as 90% in test [7], 0% in test [8], 40% in test [9] and 0% in test [10].
Take `Cc1ccc(-c2ccccc2C)cc1C1=C(O)[C@H]2CC[C@H](C2)C1=O` (single isomer, unassigned) [Compound T18]: the pest or weed control at 250 g/ha in test [1], in [2], in test [3], in [4], in test [5] and in test [6] was 0% in each case. Moreover, the pest or weed control at 250 g/ha in test [7], in test [8], in [9] and in test [10] was 0% each time.
As to `CCc1ccc(-c2cc(Cl)ccc2OC)cc1C1=C(O)[C@H]2CC[C@H](C2)C1=O` (single isomer, unassigned) [Compound T40], the pest or weed control at 250 g/ha in test [1], in [2], in [3], in [4], in [5] and in [6] was 0% each time. Further, the pest or weed control at 250 g/ha in test [7], in test [8], in test [9] and in [10] was 0% throughout.
For `CCc1cc(-c2ccc(C)cc2)ccc1C1=C(O)[C@H]2CC[C@H](C2)C1=O` (single isomer, unassigned) [Compound T60], the pest or weed control at 250 g/ha in [1] worked out at 100%; in [2], 100%; in [3], 30%; in test [4] it was 60%; in test [5], 0%; in [6], 100%. In addition, the pest or weed control at 250 g/ha was 100% in test [7], 50% in [8], 90% in test [9] and 0% in test [10].
Regarding `CCc1ccc(-c2cnc(Cl)cc2C)cc1C1=C(O)[C@H]2CC[C@H](C2)C1=O` (single isomer, unassigned) [Compound T77], the pest or weed control at 250 g/ha in test [1] is 0%; in test [2], 30%; in [3], 0%; in test [4] it was 0%; in test [5], 0%; in test [6], 80%. The pest or weed control at 250 g/ha was found to be 90% in test [7], 0% in test [8], 30% in [9] and 0% in test [10].
As to `Cc1ccc(-c2ccc(Cl)cc2C(F)(F)F)cc1C1=C(O)[C@H]2CC[C@H](C2)C1=O` (single isomer, unassigned) [Compound T42], the pest or weed control at 250 g/ha in [1], in test [2], in test [3], in test [4], in [5] and in [6] was 0% each time. In addition, the pest or weed control at 250 g/ha in [7], in [8], in [9] and in test [10] was 0% in each case.
On to `CCc1ccc(-c2ccc(Cl)cc2)cc1C1=C(O)C2CC(C1=O)C2(C)C` (stereo not drawn) [Compound T69, 3-(4′-chloro-4-ethylbiphen-3-yl)-6,6-dimethylbicyclo[3.1.1]heptane-2,4-dione], for which the pest or weed control at 250 g/ha in [1] came to 100%; in test [2], 90%; in test [3], 0%; in test [4], 20%; in test [5], 0%; in [6], 100%. In addition, the pest or weed control at 250 g/ha in test [7] is 100%; in [8] it was 80%; in test [9], 70%; in [10], 0%.
With `Cc1ccc(-c2ccc(C(F)(F)F)cc2)cc1C1=C(O)[C@H]2CC[C@H](C2)C1=O` (single isomer, unassigned) [Compound T23], the pest or weed control at 250 g/ha worked out at 90% in [1]; 100% in test [2]; 0% in [3]; 50% in test [4]; 0% in [5]; 90% in [6]. For the same compound, the pest or weed control at 250 g/ha in test [7] came to 100%; in test [8] it was 60%; in test [9] it was 60%; in [10], 0%.
Turning to `CCc1ccc(-c2ccc(Cl)nc2Cl)cc1C1=C(O)[C@H]2CC[C@H](C2)C1=O` (single isomer, unassigned) [Compound T80], the pest or weed control at 250 g/ha in [1] worked out at 90%; in [2], 100%; in [3], 50%; in test [4], 30%; in test [5] it was 0%; in [6], 90%. Also, the pest or weed control at 250 g/ha in test [7] amounted to 100%; in test [8], 70%; in [9], 70%; in [10] it was 0%.
Consider `CCc1ccc(-c2ccc(Cl)cc2Cl)cc1C1=C(O)[C@H]2C=C[C@H](CC2)C1=O` [Compound T56], for which the pest or weed control at 250 g/ha in [1] stood at 30%; in test [2], 50%; in [3], 0%; in test [4], 10%; in test [5] it was 60%; in [6], 100%. Further, the pest or weed control at 250 g/ha in [7] stood at 100%; in test [8] it was 70%; in test [9] it was 60%; in [10], 10%.
Regarding `Cc1ccc(-c2cc(Cl)ccc2Cl)cc1C1=C(O)[C@H]2CC[C@H](C2)C1=O` (single isomer, unassigned) [Compound T51], the pest or weed control at 250 g/ha in [1], in test [2], in [3], in test [4], in test [5] and in test [6] was 0% throughout. Also, the pest or weed control at 250 g/ha in [7], in test [8], in test [9] and in [10] was 0% each time.
